Experimental findings from the NIST ThermoML archive (doi:10.1021/acs.jced.6b00828) are described below.

The nature of the data set: wn = mass fraction of the nth substance listed. The following applies: 323.15 K, 101.3 kPa, Liquid, Vibrating tube method.

Numbers after ± are expanded uncertainties.

With `[Cl-].[Cl-].[Mg+2]` [magnesium chloride] + O, the mass density (w1 = 0.3732) turned out to be 1343.2 ± 0.9 kg/m3.

For `O=[PH2][O-].[Na+]` [sodium phosphinate] + O, the mass density (w1 = 0.5786) came to 1438.8 ± 1.1 kg/m3.

For the compound `O=[PH2][O-].O=[PH2][O-].[Mg+2]` [magnesium hypophosphite] + O, the mass density (w1 = 0.2243) turned out to be 1167.5 ± 0.4 kg/m3.
